Reference: US8481457B2, “Method for the improved use of the production potential of transgenic plants” (priority 2007, dated 2013)

Legend:
Assay type in all cases: in vivo
[1] = system: larvae of the beet armyworm (Spodoptera exigua); assay: Example 8: Spodoptera exigua on Maize, dip application, kill in %; conditions: 100 ppm
Description: (§1) Pots with in each case 5 transgenic maize plants having Coleoptera, Lepidoptera and/or herbicide resistance (cultivars LH332RR×LH324BT, LH244RR×LH324, HC33CRW×LH287BTCRW and TR47×TR 7322 BT) are treated in 2 replications against larvae of the beet armyworm (Spodoptera exigua). Application is carried out by dip application with the respective active compound at the desired application rate.
(§2) After the desired period of time, the kill in % is determined. 100% means that all caterpillars have been killed; 0% means that none of the caterpillars have been killed.

[2] = system: larvae of the cotton bollworm (Heliothis armigera); assay: Example 5: Heliothis armigera on Cotton (DP444 BG/RR), dip application, kill in %
Description: Individually potted transgenic cotton plants with Lepidoptera resistance and herbicide resistance (cultivar DP444 BG/RR) are treated in 2 replications against larvae of the cotton bollworm (Heliothis armigera). Application is carried out by dip application with the respective active compound at the desired application rate.
as §2

[3] = system: armyworm (Spodoptera frugiperda); assay: Example 6: Spodoptera frugiperda on Cotton (DP444 BG/RR), dip application, kill in %
Description: Individually potted transgenic cotton plants with Lepidoptera resistance and herbicide resistance (cultivar DP444 BG/RR) are treated in 2 replications against the armyworm (Spodoptera frugiperda). Application is by dip application with the respective active compound at the desired application rate.
as §2

[4] = system: armyworm (Spodoptera frugiperda); assay: Example 10: Spodoptera frugiperda on Maize (Drench Application), kill in %; conditions: 100 ppm
Description: Pots with in each case 5 transgenic maize plants having Coleoptera. Lepidoptera and/or herbicide resistance (cultivars HC33CRW×LH287BTCRW, LH332RR×LH324BT, LH24-4RR×LH324 and FR 1064LL×FR 2108) are treated in 2 replications against the armyworm (Spodoptera frugiperda). Application is carried out by drench application with the respective active compound at the desired application rate.
as §2

[5] = system: armyworm (Spodoptera frugiperda); assay: Example 9: Spodoptera frugiperda on Maize, dip application, kill in %; conditions: 100 ppm
Description: as §1, with “HC33CRW×LH287BTCRW,” for “LH332RR×LH324BT, LH244RR×LH324, HC33CRW×LH287BTCRW and”, “against” for “against larvae of”, “the” for “the beet”, “frugiperda).” for “exigua).”
as §2

[6] = system: cotton aphid (Aphis gossypii); assay: Example 4: Aphis gossypii on Cotton (DP444 BG/RR), dip application, kill in %; conditions: 0.8 ppm
Description: Individually potted transgenic cotton plants with Lepidoptera resistance and herbicide resistance (cultivar DP444 BG/RR), which are populated by a mixed population of the cotton aphid (Aphis gossypii) are treated by dip application with the respective active compound.
After the desired period of time, the kill in % is determined. 100% means that all aphids have been killed; 0% means that none of the aphids have been killed.

[7] = system: larvae of the banded cucumber beetle (Diabrotica balteata); assay: Example 7: Diabrotica balteata on Maize, drench application, kill in %; conditions: 100 ppm
Description: Pots with in each case 5 transgenic maize plants having Coleoptera, Lepidoptera and/or herbicide resistance (cultivars LH244RR×LH324 and HCL 201CRW2RR2×LH 324) are treated in 2 replications against larvae of the banded cucumber beetle (Diabrotica balteata). Application is carried out by drench application with the respective active compound at the desired application rate.
After the desired period of time, the kill in % is determined. 100% means that all beetle larvae have been killed; 0% means that none of the beetle larvae have been killed.

CN(Cc1cnc(Cl)c(F)c1)C1=CC(=O)OC1 [Compound I-6, 4-{[(6-chloro-5-fluoropyrid-3-yl)methyl](methyl)amino}furan-2(5H)-one]
Kill rate in % after 4d (found) [1]: 0%
Kill rate in % after 4d (found) ([2]; 20 ppm): 0%
Kill rate in % after 6d (found) ([3]; 100 ppm, after 6 d): 20%
Kill rate in % after 6d (found) [4]: 0%
Kill rate in % after 4d (found) [5]: 0%

O=C1C=C(N(CCF)Cc2ccc(Cl)nc2)CO1 [Compound I-4, 4-{[(6-chloropyrid-3-yl)methyl](2-fluoroethyl)amino}furan-2(5H)-one]
Kill rate in % after 6d (found) ([6]; after 6 d): 15%
Kill rate in % after 4d (found) [1]: 0%
Kill rate in % after 4d (found) ([2]; 100 ppm): 0%
Kill rate in % after 6d (found) [4]: 15%
Kill rate in % after 4d (found) [5]: 0%

O=C1C=C(N(Cc2ccc(Cl)nc2)CC(F)F)CO1 [Compound I-5, 4-{[(6-chloropyrid-3-yl)methyl](2,2-difluoroethyl)amino}furan-2(5H)-one]
Kill rate in % after 10d (found) [7]: 45%
Kill rate in % after 1d (found) ([6]; after 1 d): 40%
Kill rate in % after 4d (found) ([3]; 20 ppm, after 4 d): 0%
Kill rate in % after 1d (found) ([5]; after 1 d): 0%
Kill rate in % after 4d (found) [5]: 10%

CN(Cc1ccc(Cl)nc1)C1=CC(=O)OC1 [Compound I-10, 4-{[(6-chloropyrid-3-yl)methyl](methyl)amino}furan-2(5H)-one]
Kill rate in % after 4d (found) [1]: 10%
Kill rate in % after 6d (found) [4]: 0%
